# Experimental data taken from ChEMBL document CHEMBL6074624, “FDA-approved small molecule kinase inhibitors for cancer treatment (2001-2015): Medical indication, structural optimization, and binding mode Part I” (Bioorg Med Chem, 2024).
# pIC50, pKi: −log10 of the molar value.
# Tests used:
# [1] = target: Cyclin-dependent kinase 2 (Homo sapiens, UniProt P24941); assay: Inhibition of CDK2 (unknown origin)
# [2] = target: T1, Proto-oncogene tyrosine-protein kinase Src (Homo sapiens, UniProt P12931)
# T1 sequence (P12931 2-536 limits assumed): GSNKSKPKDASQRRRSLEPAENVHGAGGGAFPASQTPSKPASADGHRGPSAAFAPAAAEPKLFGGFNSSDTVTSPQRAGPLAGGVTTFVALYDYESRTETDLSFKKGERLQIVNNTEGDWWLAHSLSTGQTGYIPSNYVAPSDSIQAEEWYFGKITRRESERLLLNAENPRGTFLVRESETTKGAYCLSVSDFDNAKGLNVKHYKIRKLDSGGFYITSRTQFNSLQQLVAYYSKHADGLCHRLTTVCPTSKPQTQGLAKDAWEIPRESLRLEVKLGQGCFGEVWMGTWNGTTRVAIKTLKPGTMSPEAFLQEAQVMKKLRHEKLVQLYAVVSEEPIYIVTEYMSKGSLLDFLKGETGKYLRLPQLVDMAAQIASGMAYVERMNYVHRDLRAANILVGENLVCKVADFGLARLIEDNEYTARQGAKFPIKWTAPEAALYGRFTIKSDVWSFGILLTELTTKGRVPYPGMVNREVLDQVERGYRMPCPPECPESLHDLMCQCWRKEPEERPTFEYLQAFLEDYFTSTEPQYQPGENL
# [3] = Half life in mouse at 10 mg/kg, po by LC-MS/MS analysis; type: ADME, organism-based; conditions: in vivo
# [4] = Volume of distribution at steady state in Sprague-Dawley rat at 10 mg/kg, iv by LC-MS/MS analysis; type: ADME, organism-based; conditions: in vivo, read-out: Vdss
# [5] = Clearance in Sprague-Dawley rat at 10 mg/kg, iv by LC-MS/MS analysis; type: ADME, organism-based; conditions: in vivo
# [6] = Oral bioavailability in Sprague-Dawley rat at 10 mg/kg by LC-MS analysis; type: ADME, organism-based; conditions: in vivo
# [7] = Anticancer activity against human NCI-H1975 cells harboring EGFR L858R/T790M mutant assessed as reduction in cell viability measured after 72 hrs by MTT assay; type: functional, cell-based; conditions: NCI-H1975, 72 h
# PC-9 [8] = assay: Antiproliferative activity against human PC-9 cells harboring EGFR L858R mutant assessed as reduction in cell viability measured after 72 hrs by SRB assay; type: functional, cell-based; conditions: PC-9, 72 h
# NCI-H1975 [9] = assay: Growth inhibition of human NCI-H1975 cells; type: functional
# PC-9 [10] = assay: Growth inhibition of human PC-9 cells; type: functional
# Calu-3 = assay: Growth inhibition of human Calu-3 cells; type: functional
# [11] = Aqueous solubility of compound at pH 7.4 by LC-MS/MS analysis; type: physicochemical; conditions: buffer
# [12] = target: Voltage-gated inwardly rectifying potassium channel KCNH2 (Homo sapiens, UniProt Q12809); assay: Inhibition of hERG; type: toxicity
# Chain of Voltage-gated inwardly rectifying potassium channel KCNH2 (Q12809 whole entry): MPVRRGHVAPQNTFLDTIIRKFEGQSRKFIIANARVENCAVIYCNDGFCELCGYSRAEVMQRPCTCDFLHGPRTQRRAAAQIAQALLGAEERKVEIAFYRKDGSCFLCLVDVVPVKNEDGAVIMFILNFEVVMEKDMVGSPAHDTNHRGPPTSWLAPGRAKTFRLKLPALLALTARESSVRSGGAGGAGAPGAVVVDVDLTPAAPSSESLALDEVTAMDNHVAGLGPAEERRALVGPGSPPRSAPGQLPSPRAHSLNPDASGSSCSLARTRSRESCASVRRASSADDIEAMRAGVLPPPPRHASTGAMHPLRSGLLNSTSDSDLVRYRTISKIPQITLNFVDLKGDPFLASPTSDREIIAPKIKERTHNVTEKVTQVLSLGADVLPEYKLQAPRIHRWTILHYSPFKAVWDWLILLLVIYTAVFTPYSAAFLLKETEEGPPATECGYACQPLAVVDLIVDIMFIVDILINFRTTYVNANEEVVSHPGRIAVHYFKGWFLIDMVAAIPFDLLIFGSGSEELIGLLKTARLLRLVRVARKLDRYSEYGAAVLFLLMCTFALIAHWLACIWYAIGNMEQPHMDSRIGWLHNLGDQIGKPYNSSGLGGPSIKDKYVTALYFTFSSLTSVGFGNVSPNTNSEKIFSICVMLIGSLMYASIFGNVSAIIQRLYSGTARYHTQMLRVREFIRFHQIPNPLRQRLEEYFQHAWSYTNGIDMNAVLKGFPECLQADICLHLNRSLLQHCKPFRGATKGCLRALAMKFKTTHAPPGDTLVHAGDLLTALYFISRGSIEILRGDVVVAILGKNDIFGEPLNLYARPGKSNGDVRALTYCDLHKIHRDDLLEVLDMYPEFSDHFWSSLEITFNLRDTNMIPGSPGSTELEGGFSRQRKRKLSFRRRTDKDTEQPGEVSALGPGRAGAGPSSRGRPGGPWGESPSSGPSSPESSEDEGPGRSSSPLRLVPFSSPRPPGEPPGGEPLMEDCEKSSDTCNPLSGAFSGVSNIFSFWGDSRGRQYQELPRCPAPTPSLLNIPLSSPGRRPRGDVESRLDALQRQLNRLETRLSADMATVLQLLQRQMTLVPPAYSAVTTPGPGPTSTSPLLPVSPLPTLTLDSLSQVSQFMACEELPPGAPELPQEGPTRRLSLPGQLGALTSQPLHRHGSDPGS
# [13] = target: Epidermal growth factor receptor (Homo sapiens, UniProt P00533, L858R/T790M); assay: Inhibition of EGFR L858R/T790M (unknown origin)
# Chain of Epidermal growth factor receptor (Homo sapiens, UniProt P00533, L858R/T790M) (P00533 25-1210 T790M/L858R limits assumed): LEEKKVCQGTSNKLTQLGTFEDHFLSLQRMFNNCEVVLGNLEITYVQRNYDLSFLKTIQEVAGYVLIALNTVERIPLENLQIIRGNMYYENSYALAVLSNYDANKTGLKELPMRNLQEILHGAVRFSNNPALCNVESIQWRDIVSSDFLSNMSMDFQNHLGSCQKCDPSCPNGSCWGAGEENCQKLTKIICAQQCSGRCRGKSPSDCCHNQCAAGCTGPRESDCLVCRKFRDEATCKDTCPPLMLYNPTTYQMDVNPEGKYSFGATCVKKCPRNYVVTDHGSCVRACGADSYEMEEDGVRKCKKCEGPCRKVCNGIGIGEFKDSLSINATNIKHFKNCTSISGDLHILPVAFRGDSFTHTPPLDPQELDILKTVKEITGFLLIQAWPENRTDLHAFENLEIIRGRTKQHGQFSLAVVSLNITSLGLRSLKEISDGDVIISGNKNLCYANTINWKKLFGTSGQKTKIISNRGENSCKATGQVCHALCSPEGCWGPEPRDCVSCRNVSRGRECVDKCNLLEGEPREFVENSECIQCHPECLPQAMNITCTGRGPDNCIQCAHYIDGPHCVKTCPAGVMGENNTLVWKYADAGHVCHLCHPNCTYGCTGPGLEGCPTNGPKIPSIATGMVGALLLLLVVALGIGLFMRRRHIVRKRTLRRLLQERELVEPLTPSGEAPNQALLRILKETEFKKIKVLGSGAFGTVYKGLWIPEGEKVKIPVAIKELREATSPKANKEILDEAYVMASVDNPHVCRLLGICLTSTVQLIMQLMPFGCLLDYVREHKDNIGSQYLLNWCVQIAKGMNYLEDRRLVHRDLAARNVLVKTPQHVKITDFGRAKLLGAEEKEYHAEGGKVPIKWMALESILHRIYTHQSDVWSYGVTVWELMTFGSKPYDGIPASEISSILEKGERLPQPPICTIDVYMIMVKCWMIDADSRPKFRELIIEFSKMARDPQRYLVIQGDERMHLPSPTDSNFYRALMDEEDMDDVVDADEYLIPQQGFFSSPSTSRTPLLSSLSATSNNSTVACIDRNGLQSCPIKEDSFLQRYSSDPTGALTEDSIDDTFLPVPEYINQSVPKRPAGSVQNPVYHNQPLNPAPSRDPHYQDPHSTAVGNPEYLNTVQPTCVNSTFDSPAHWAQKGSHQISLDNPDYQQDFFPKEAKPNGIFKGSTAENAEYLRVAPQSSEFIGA
# NCI-H1975 [14] = assay: Antiproliferative activity against human NCI-H1975 cells assessed as reduction in cell viability after 24 hrs by MTT assay; type: functional, cell-based; conditions: NCI-H1975, 24 h
# PC-9 [15] = assay: Antiproliferative activity against human PC-9 cells assessed as reduction in cell growth incubated for 72 hrs by MTT assay; type: functional, cell-based; conditions: PC-9, 72 h
# [16] = target: Vascular endothelial growth factor receptor 1 (Homo sapiens, UniProt P17948); assay: Inhibition of VEGFR-1 (unknown origin)
# ACHN = assay: Antiproliferative activity against human ACHN cells assessed as reduction in cell viability measured after 48 hrs by SRB assay; type: functional, cell-based
# HT-29 = assay: Antiproliferative activity against human HT-29 cells assessed as reduction in cell viability after 72 hrs by MTS assay; type: functional, cell-based; conditions: HT-29, 72 h
# [17] = Inhibition of PDGFR (unknown origin) in NIH3T3 cells; type: cell-based, Homo sapiens
# [18] = Cytotoxicity against HUVEC cells assessed as reduction in cell viability after 72 hrs by CellTiter-Glo assay; type: toxicity, cell-based; conditions: human
# [19] = target: T2, Vascular endothelial growth factor receptor 2 (Homo sapiens, UniProt P35968); assay: Inhibition of VEGFR-2 (unknown origin) expressed in NIH3T3 cells assessed as reduction in VEGFA induced protein phosphorylation; type: cell-based
# T2 sequence (P35968 whole entry): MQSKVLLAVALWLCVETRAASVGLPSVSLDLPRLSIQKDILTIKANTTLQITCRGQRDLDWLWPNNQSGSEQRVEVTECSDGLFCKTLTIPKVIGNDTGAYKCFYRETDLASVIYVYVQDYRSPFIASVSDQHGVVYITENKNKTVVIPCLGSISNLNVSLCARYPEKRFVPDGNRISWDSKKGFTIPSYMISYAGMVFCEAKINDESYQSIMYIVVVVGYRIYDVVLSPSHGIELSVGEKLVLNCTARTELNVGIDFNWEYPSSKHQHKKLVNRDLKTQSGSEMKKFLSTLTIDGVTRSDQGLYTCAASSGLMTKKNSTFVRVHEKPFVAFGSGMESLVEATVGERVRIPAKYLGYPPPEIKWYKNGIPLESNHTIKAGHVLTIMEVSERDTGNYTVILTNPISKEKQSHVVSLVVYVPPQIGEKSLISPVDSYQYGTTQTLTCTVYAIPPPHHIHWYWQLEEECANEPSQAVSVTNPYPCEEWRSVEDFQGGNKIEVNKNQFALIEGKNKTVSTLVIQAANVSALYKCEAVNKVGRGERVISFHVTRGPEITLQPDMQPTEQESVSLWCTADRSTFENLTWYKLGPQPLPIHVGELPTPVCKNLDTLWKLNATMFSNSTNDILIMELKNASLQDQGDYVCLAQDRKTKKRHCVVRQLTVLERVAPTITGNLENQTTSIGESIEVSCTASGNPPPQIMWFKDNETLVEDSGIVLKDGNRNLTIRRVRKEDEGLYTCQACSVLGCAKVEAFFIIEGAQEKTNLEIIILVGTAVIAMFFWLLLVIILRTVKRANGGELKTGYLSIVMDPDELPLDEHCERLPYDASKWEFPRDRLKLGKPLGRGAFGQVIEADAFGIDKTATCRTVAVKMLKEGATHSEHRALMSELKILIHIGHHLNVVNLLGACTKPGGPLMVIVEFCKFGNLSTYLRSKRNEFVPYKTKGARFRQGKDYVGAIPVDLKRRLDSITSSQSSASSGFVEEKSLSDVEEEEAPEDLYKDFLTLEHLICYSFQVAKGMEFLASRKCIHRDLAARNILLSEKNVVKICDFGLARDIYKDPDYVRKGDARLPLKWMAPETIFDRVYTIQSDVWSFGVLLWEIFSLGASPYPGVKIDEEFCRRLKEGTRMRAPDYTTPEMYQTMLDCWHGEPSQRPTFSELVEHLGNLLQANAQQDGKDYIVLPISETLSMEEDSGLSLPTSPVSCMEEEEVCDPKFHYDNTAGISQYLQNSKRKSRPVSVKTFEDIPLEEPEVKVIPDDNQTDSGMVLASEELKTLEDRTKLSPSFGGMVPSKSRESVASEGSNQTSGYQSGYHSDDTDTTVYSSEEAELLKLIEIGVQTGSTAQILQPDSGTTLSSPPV
# [20] = target: T2, Vascular endothelial growth factor receptor 2; assay: Binding affinity to VEGFR-2 (unknown origin) assessed as inhibition constant
# [21] = target: T3, Tyrosine-protein kinase Lck (Homo sapiens, UniProt P06239); assay: Inhibition of human LCK
# T3 sequence (P06239 whole entry): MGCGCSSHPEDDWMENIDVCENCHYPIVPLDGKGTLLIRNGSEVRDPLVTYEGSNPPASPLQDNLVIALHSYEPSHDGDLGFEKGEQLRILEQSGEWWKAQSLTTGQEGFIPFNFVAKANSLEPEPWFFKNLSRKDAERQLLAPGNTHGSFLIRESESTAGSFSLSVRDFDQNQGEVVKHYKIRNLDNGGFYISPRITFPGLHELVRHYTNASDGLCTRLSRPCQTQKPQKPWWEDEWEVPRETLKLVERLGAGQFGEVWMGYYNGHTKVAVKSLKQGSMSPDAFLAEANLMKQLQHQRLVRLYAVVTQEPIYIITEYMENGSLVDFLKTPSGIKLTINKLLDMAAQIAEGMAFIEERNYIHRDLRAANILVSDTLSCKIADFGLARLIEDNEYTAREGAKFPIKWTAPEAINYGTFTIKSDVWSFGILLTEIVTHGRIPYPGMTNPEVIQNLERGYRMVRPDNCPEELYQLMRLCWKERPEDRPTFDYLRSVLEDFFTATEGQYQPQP
# [22] = target: Mast/stem cell growth factor receptor Kit (Homo sapiens, UniProt P10721); assay: Inhibition of c-Kit (unknown origin)
# [23] = target: T1, Proto-oncogene tyrosine-protein kinase Src; assay: Inhibition of SRC (unknown origin)
# [24] = target: Tyrosine-protein kinase Yes (Homo sapiens, UniProt P07947); assay: Inhibition of YES1 (unknown origin)
# PC-3 = assay: Antiproliferative activity against human PC-3 cells; type: functional, cell-based
# MDA-MB-231 = assay: Antiproliferative activity against human MDA-MB-231 cells; type: functional, cell-based
# [25] = target: T3, Tyrosine-protein kinase Lck
# [26] = target: Epidermal growth factor receptor (Homo sapiens, UniProt P00533)
# KB = assay: cells; conditions: Homo sapiens, 72 h
smiles,measurement,setting,value
CC(=O)c1c(C)c2cnc(Nc3ccc(N4CCNCC4)cc3)nc2n(C2CCCC2)c1=O,pIC50,[1],7.96
Cc1ccc(NC(=O)c2cc(C(C)(C)C)on2)cc1/C=C/n1cnc2c(NC3CC3)ncnc21,pIC50,[2],4.81
COc1cc2ncnc(Nc3ccc(F)c(Cl)c3)c2cc1OC,half-life,[3],3 h
Cc1nc(Nc2ncc(C(=O)Nc3c(C)cccc3Cl)s2)cc(N2CCN(CCO)CC2)n1 [DASATINIB ANHYDROUS],Vd,[4],6.3 L/kg
same,clearance,[5],26.4 mL/min/kg
same,bioavailability,[6],27%
C=CC(=O)Nc1cc(Nc2ncc(Cl)c(-c3cnn4ccccc34)n2)c(OC)cc1C1CC[C@@H](N(C)C)C1 (stereo partly specified),pIC50,[7],8.70
same,pIC50,PC-9 [8],7.80
same,GI50,NCI-H1975 [9],7 nM
same,GI50,PC-9 [10],10 nM
same,GI50,Calu-3,380 nM
same,solubility,[11],28 µM
same,pIC50,[12],5.25
C=CC(=O)Nc1ccc(OC)c(Nc2ncc(Cl)c(-c3c[nH]c4ccccc34)n2)c1,pIC50,[13],7.22
same,pIC50,NCI-H1975 [14],7.70
same,pIC50,PC-9 [15],6.82
COc1cc2nccc(Oc3ccc(NC(=O)NC4CC4)c(Cl)c3)c2cc1C(N)=O [LENVATINIB],pIC50,[16],8.47
Cn1c(=O)cc(Nc2ccc(I)cc2F)c2c(=O)n(C3CC3)c(=O)n(-c3ccccc3)c21,pIC50,ACHN,7.89
same,pIC50,HT-29,8.82
C=CC(=O)Nc1cccc(Nc2ncc(Cl)c(-c3c[nH]c4ccccc34)n2)c1,pIC50,NCI-H1975 [14],7.10
same,pIC50,PC-9 [15],7.70
Cn1c(Nc2ccccc2)c2c(=O)n(C3CC3)c(=O)n(-c3ccc(Br)cc3)c2cc1=O,pIC50,ACHN,> 5.52
same,pIC50,HT-29,< 6.00
CCN(CC)CCNC(=O)c1c(C)[nH]c(/C=C2\C(=O)Nc3ccccc32)c1C,pIC50,[17],7.00
Cc1ccc2cc(NC(=O)c3ccccc3Sc3ccc4c(/C=C/c5ccccn5)n[nH]c4c3)ccc2n1,IC50 at 72 h,[18],0.8 nM
Cc1ccc(NC(=O)c2cc(C(F)(F)F)ccn2)cc1C#Cn1cnc2c(NC3CC3)ncnc21,pIC50,[2],6.28
Cc1c[nH]c(/C=C2\C(=O)Nc3ccccc32)c1CCC(=O)O,pIC50,[19],6.40
same,pIC50,[17],4.22
C=CC(=O)Nc1cc(Nc2ncc(Cl)c(-c3cnn4ccccc34)n2)c(OC)cc1C(C)CCNC (stereo unspecified),pIC50,[7],9.22
same,pIC50,PC-9 [8],8.70
same,GI50,NCI-H1975 [9],3 nM
same,GI50,PC-9 [10],4 nM
same,GI50,Calu-3,180 nM
same,solubility,[11],222 µM
same,pIC50,[12],5.17
Cn1c(=O)cc(Nc2ccc(Cl)cc2)c2c(=O)n(-c3ccccc3)c(=O)n(-c3ccccc3)c21,pIC50,ACHN,5.32
same,pIC50,HT-29,6.00
CCOC(=O)c1c(C)c2cnc(Nc3ccc(N4CCNCC4)cc3)nc2n(C2CCCC2)c1=O,pIC50,[1],< 5.30
COc1cc(/C=C/c2cc(/C=C/c3ccc(O)c(OC)c3)[nH]n2)ccc1O [CURCUMIN PYRAZOLE],pKi,[20],5.29
Cn1c(=O)cc(Nc2ccc(Br)cc2)c2c(=O)n(C3CC3)c(=O)n(-c3ccccc3)c21,pIC50,ACHN,5.90
same,pIC50,HT-29,7.00
Cc1cccc(Cl)c1NC(=O)c1ccc2nc(Nc3cccc(NCCO)n3)sc2c1,pIC50,[21],6.30
COc1cc(N2CCN(C(C)=O)CC2)ccc1Nc1ncc(Cl)c(-c2c[nH]c3ccccc23)n1,pIC50,[13],7.00
same,pIC50,NCI-H1975 [14],6.11
C(=C\c1n[nH]c2cc(Sc3ccccc3)ccc12)/c1ccccc1,pKi,[20],8.35
Cc1cc(Nc2ncc(C(=O)Nc3c(C)cccc3Cl)s2)nc(C)n1,pIC50,[21],6.00
same,pIC50,[22],8.30
same,pIC50,[23],9.30
same,pIC50,[24],9.30
same,pIC50,PC-3,8.03
same,pIC50,MDA-MB-231,7.92
same,pIC50,[25],9.40
Cc1ccc(NC(=O)c2cc(C(F)(F)F)ccn2)cc1/C=C/n1cnc2c(NC3CC3)ncnc21,pIC50,[2],4.85
Cc1cccc(Nc2ncnc3ccc(N)cc23)c1,pIC50,[26],7.30
same,pIC50,KB,6.00
Cn1c(=O)cc(Nc2ccc(Br)cc2F)c2c(=O)n(C3CC3)c(=O)n(-c3ccccc3)c21,pIC50,ACHN,6.49
same,pIC50,HT-29,7.82
C=CC(=O)Nc1cc(Nc2ncc(Cl)c(-c3cnn4ccccc34)n2)c(OC)cc1C1CC(N(C)C)C1 (stereo unspecified),pIC50,[7],8.40
same,pIC50,PC-9 [8],7.68
same,GI50,NCI-H1975 [9],17 nM
same,GI50,PC-9 [10],19 nM
same,GI50,Calu-3,846 nM
same,solubility,[11],43 µM
same,pIC50,[12],5.40
COc1cc2ncnc(Nc3cccc(C)c3)c2cc1OC,half-life,[3],1 h
same,pIC50,KB,7.30
